Data reported in US5641500A, “Use of purinergic receptor agonists as antineoplastic agents” (The United States of America as represented by the …, priority 1995, dated 1997).

Legend:
[1] = test system: plasma membrane Ca^2+ channels; assay: Effect of organic Ca2+ channel blockers on the ATP-stimulated Ca2+ transient in PC-3; type: cell-based, human; conditions: PC-3, FIG. 9
[2] = test system: DU145 prostate carcinoma purinergic receptor; assay: ATP/purine-stimulated Ca2+ response (quin2 fluorescence) in DU145; type: cell-based, human; conditions: for relative agonist potency/activity in inducing a Ca2+ transient: DU145, FIG. 6
Experimental: (§5) The human prostate carcinoma cell lines PC3, DU145 (American Type Culture Collection) and PC-3M (a gift of Dr. G. Weiss, Surgery Branch, NCI) were maintained in Ham's F12K (PC3), Eagle's Modified Essential Medium (DU145), or RPMI 1640 (PC3M), supplemented with 7% (PC3) or 10% (DU145 and PC3M) fetal bovine serum, 100 units/ml penicillin, 100 mg/ml streptomycin, and 300 mg/ml glutamine. The cells were grown in a mixture of 5% CO2, 95% air at 37° C., and propagated by typsinization and dilution into fresh medium. Cells were typically used for calcium determination two days after dilution into fresh medium.
(§6) [Ca^2+ ]i was determined by the quin2 technique of Tsien et al. (J. Cell Biol. 94:325-334, 1982) with some modifications. Briefly, cells from confluent cultures were harvested by treatment with trypsin-EDTA. Cells were washed with calcium medium (1 mM CaCl2, 1 mM KCl, 1 mM MgCl2, 140 mM NaCl, 20 mM HEPES, 5 mM dextrose, pH 7.4), and loaded with 20 mM quin2/AM (Molecular Probes, Eugene, Oreg.) in calcium medium at 37° C. for 30 minutes, then diluted 5-fold with the same medium and incubated at 37° C. for 60 minutes. After loading, cells were washed and resuspended in the calcium media at 1.5-2.0×10^6 cells/ml and kept on ice until use. Cell viability was determined by trypan blue exclusion and was usually >95%. For measurement of fluorescence, 2 ml of cell suspension was transferred to a cuvette maintained at 37° C. Fluorescence was measured in a Perkin-Elmer 650-10S fluorescence spectrophotometer, with an excitation wavelength of 336 nm, slit 5 nm, and an emission wavelength of 493 nm, slit 5 nm. [Ca^2+ ]i was estimated after calibration with Triton X-100 and EGTA, assuming a dissociation constant of the Ca^2+ -quin2 complex of 115 nM.

[3] = test system: PC-3 prostate carcinoma purinergic receptor; assay: ATP/purine-stimulated Ca2+ response (quin2 fluorescence) in PC-3; type: cell-based, human; conditions: for relative agonist potency/activity in inducing a Ca2+ transient: PC-3, FIG. 7
Experimental: as §5, §6

[4] = test system: purinergic receptor on PC-3M prostate carcinoma cells; assay: Purine-stimulated Ca2+ response (quin2 fluorescence) in PC-3M; type: cell-based, human; conditions: FIG. 8
Experimental: as §5, §6

[5] = test system: PC-3 prostate carcinoma cells; assay: Cell growth (hemacytometer viable cell counts) and 3H-thymidine incorporation in PC-3; type: cell-based, human; conditions: for 3H-thymidine incorporation cpm / 3H-thymidine incorporation cpm/cell / cell # (× 10-4): PC-3, 7 days; for inhibition of cell growth: PC-3, 5 days, versus untreated control cells, FIG. 12
Experimental: (§1) The human prostate carcinoma cell lines PC3, DU145 (American Type Culture Collection) and PC-3M (a gift of Dr. G. Weiss, Surgery Branch, NCI) were maintained in Ham's F12K (PC3), Eagle's Modified Essential Medium (DU145), or RPMI 1640 (PC3M), supplemented with 7% (PC3) or 10% (DU145 and PC3M) fetal bovine serum, 100 units/ml penicillin, […], and […]. The cells were grown in a mixture of 5% CO2, 95% air at 37° C., and propagated by typsinization and dilution into fresh medium. Cells were typically used for calcium determination two days after dilution into fresh medium.
(§2) Cell growth was studied by hemacytometer counts of viable cells after incubation of cells with purinergic agonists in vitro. Viability was determined by trypan blue exclusion. In addition, growth studies were performed by ^3 H-thymidine incorporation. […] The induction of DNA strand breaks in the setting of cell growth inhibition is characteristic of programmed cell death or apoptosis.
(§3) Since purinergic receptor agonists induce massive mobilization of internal Ca^2+ stores and prolong this response through the opening of plasma membrane Ca^2+ channels, the effect of purinergic receptor stimulation on the growth of androgen-independent cells was examined. The cell lines DU145, PC-3, and PC-3M were incubated in the presence of ATP or the nonhydrolysable ATP analog adenylylimidodiphosphate (AMP-PNP), and cell growth was determined by hemacytometer counts of viable cells, with viability determined by trypan blue exclusion.
(§4) To further document the purinergic agonist-induced growth inhibition, thymidine incorporation studies were performed in conjunction with hemacytometer cell counts, and the thymidine incorporation per cell of ATP and AMP-PNP treated PC-3 and PC-3M cells was determined. These studies, shown in Table 2, confirmed that purinergic agonists inhibit the growth of androgen-independent prostate carcinoma cells. […] It is of interest that normal prostate cells die in response to androgen withdrawal in a process called apoptosis, and this cell death resembles the cell death shown after treatment with purinergic agonists in two respects. Firstly, the death of normal prostate cells after androgen withdrawal is dependent on a rise in intracellular Ca^2+. Secondly, the death of normal prostate cells after androgen withdrawal is mediated by an increase in the number of DNA strand breaks. Thus, this technique should be therapeutically useful for circumventing the absence of androgen receptors on advanced prostate carcinoma cells. The results presented here represent the discovery of a surface receptor specifically expressed on advanced prostatic adenocarcinoma which, when activated, induces a mode of cell death that apparently utilizes that same intracellular pathway as the death that normal prostate cells undergo in response to the withdrawal of androgen.

[6] = test system: PC-3M prostate carcinoma cells; assay: Cell growth (hemacytometer viable cell counts) and 3H-thymidine incorporation in PC-3M; type: cell-based, human; conditions: 5 days
Experimental: as §1, §2, §3, §4

[7] = test system: DU145 cells; assay: Cell growth (hemacytometer viable cell counts) in DU145; type: cell-based, human; conditions: DU145, 5 days, 100 μM, versus untreated controls, FIG. 11
Experimental: as §1
Cell growth was studied by hemacytometer counts of viable cells after incubation of cells with purinergic agonists in vitro. Viability was determined by trypan blue exclusion. In addition, growth studies were performed by ^3 H-thymidine incorporation. […]
as §3

[8] = test system: PC-3 prostate carcinoma cells; assay: Nude mouse tumorigenesis of PC-3 cells pretreated in vitro; type: in vivo, athymic mice; conditions: cells pretreated in vitro 100 uM 3 times over 7 days, 1.5×10^6 cells/mouse s.c., FIG. 13
Experimental: PC-3 prostate carcinoma cells were treated in vitro with the purinergic agonists ATP or AMP-PNP, 100 uM 3 times over 7 days, and their growth in athymic mice was compared to that in untreated control cells. Cells were injected subcutaneously at an inoculum of 1.5×10^6 cells/mouse in 0.2 ml phosphate buffered saline, and the presence of palpable tumors was determined on day 22.
The cells were treated in vitro for 7 days, and then an equal number of untreated control cells, ATP treated, or AMP-PNP treated cells were inoculated subcutaneously into nude (athymic) mice.

[9] = test system: phospholipase C; assay: ATP-stimulated inositol phosphate production (HPLC of 3H-inositol phosphates) in PC-3; type: cell-based, human
Experimental: Cells were incubated with ^3 H-inositol (6 μCi/ml) in inositol-free RPMI 1640 medium (NIH Media Unit) without serum for 2 to 3 days at 37° C. under an atmosphere of 5% CO2, 95% air. Cells were detached by trypsinization, washed twice in phosphate buffered saline pH 7.4, resuspended in PBS with 10 mM LiCl, and maintained for 15 minutes at 37° C. After that, cells were washed twice with PBS plus 10 mM LiCl and resuspended in calcium medium plus 10 mM LiCl. The cell suspension was aliquoted into Eppendorf tubes, pre-warmed at 37° C., and treated with reagents for different times as indicated. Reactions were terminated by adding 100% trichloroacetic acid (TCA) to a final concentration of 10%. After centrifugation, the supernatants were removed, extracted twice with water-saturated ether to remove TCA, and stored at 4° C. until quantitative analysis of inositol phosphates by high pressure liquid chromatography.
Samples prepared as described above were applied to a Whatman Partisil 5 SAX column. Inositol phosphates were separated using an ammonium phosphate gradient (0.01M to 1.4M. pH 3.8, 1 ml/min flow rate) as described previously (Biochem. J. 255: 403-410, 1988). Radioactivity was measured by use of a Raytest radiodetector with a 2 ml flow cell and a ratio of 4:1 (v:v) of Monoflow 4 high salt scintillant (National Diagnostics); eluate at an efficiency of 17%. Values (counts/min) for each inositol phosphate were expressed as a percentage of ^3 H-phosphoinositides in the sample, permitting comparison among experiments.

COc1ccc([C@@H]2Sc3ccccc3N(CCN(C)C)C(=O)[C@@H]2OC(C)=O)cc1 [diltiazem]
inhibition of influx of extracellular Ca2+ caused by ATP stimulation [1]: inhibitable

COc1ccc(CCN(C)CCCC(C#N)(c2ccc(OC)c(OC)c2)C(C)C)cc1OC (stereo not shown) [verapamil]
inhibition of influx of extracellular Ca2+ caused by ATP stimulation [1]: inhibitable

Nc1ncnc2c1ncn2[C@@H]1O[C@H](COP(=O)(O)O)[C@@H](O)[C@H]1O [AMP, adenosine monophosphate]
relative agonist potency/activity in inducing a Ca2+ transient [2]: ATP>ADP>AMP>adenosine
relative agonist potency/activity in inducing a Ca2+ transient [3]: ATP>ADP>AMP>adenosine
relative agonist potency/activity in inducing a Ca2+ transient [4]: ATP>ADP>AMP>adenosine

Nc1ncnc2c1ncn2[C@@H]1O[C@H](COP(=O)(O)OP(=O)(O)O)[C@@H](O)[C@H]1O [ADP, adenosine diphosphate]
relative agonist potency/activity in inducing a Ca2+ transient [2]: ATP>ADP>AMP>adenosine
relative agonist potency/activity in inducing a Ca2+ transient [3]: ATP>ADP>AMP>adenosine
relative agonist potency/activity in inducing a Ca2+ transient [4]: ATP>ADP>AMP>adenosine

Nc1ncnc2c1ncn2[C@@H]1O[C@H](CO)[C@@H](O)[C@H]1O [adenosine]
relative agonist potency/activity in inducing a Ca2+ transient [2]: ATP>ADP>AMP>adenosine
relative agonist potency/activity in inducing a Ca2+ transient [3]: ATP>ADP>AMP>adenosine
relative agonist potency/activity in inducing a Ca2+ transient [4]: ATP>ADP>AMP>adenosine

CCCC(=O)Nc1ncnc2c1ncn2[C@@H]1O[C@@H]2COP(=O)(O)O[C@H]2[C@H]1OC(=O)CCC [DbcAMP, reference compound]
3H-thymidine incorporation cpm ([5]; DbcAMP concentration not given): 182 cpm
3H-thymidine incorporation cpm/cell ([5]; DbcAMP concentration not given): 0.01 cpm/cell
cell # (× 10-4) ([5]; DbcAMP concentration not given): 1.5 × 10-4

COC(=O)C1=C(C)NC(C)=C(C(=O)OC)C1c1ccccc1[N+](=O)[O-] [nifedipine]
inhibition of influx of extracellular Ca2+ caused by ATP stimulation [1]: inhibitable

COC(=O)C1=C(C)NC(C)=C(C(=O)OCCN(C)Cc2ccccc2)C1c1cccc([N+](=O)[O-])c1 (stereo not shown) [nicardipine]
inhibition of influx of extracellular Ca2+ caused by ATP stimulation [1]: inhibitable

Nc1ncnc2c1ncn2[C@@H]1O[C@H](COP(=O)(O)OP(=O)(O)NP(=O)(O)O)[C@@H](O)[C@H]1O [AMP-PNP, 5'adenylylimidodiphosphate]
inhibition of cell growth ([5]; 100 μM): inhibition of growth
3H-thymidine incorporation cpm ([5]; 100 μM): 307 cpm
3H-thymidine incorporation cpm/cell ([5]; 100 μM): 0.06 cpm/cell
cell # (× 10-4) ([5]; 100 μM): 0.5 × 10-4
3H-thymidine incorporation cpm ([6]; 100 μM): 2790 cpm
3H-thymidine incorporation cpm/cell ([6]; 100 μM): 0.14 cpm/cell
cell # (× 10-4) ([6]; 100 μM): 2.0 × 10-4
inhibition of cell growth [7]: inhibition of growth
inhibition of tumorigenesis (palpable tumor) [8]: inhibition of PC-3 prostate carcinoma tumorigenesis

Nc1ncnc2c1ncn2[C@@H]1O[C@H](COP(=O)(O)OP(=O)(O)OP(=O)(O)O)[C@@H](O)[C@H]1O [ATP, adenosine triphosphate]
mean percent stimulation of Ca2+ response ([2]; DU145, 100 μM ATP, 13 experiments): 510.7%
relative agonist potency/activity in inducing a Ca2+ transient [2]: ATP>ADP>AMP>adenosine
mean percent stimulation of Ca2+ response ([3]; PC-3, 100 μM ATP, 16 experiments): 443.3%
Ca2+ mobilizing activity compared with other peptides and neurotransmitters ([3]; PC-3, FIG. 1): largest Ca^2+ response of the agonists tested
relative agonist potency/activity in inducing a Ca2+ transient [3]: ATP>ADP>AMP>adenosine
relative agonist potency/activity in inducing a Ca2+ transient [4]: ATP>ADP>AMP>adenosine
I(1,4,5)P3 % of total IP ([9]; PC-3, 8 sec): 0.64 % of total IP
I(1,4,5)P3 cpm ([9]; PC-3, 8 sec): 1103 cpm
I(1,4,5)P3 % of total IP ([9]; PC-3, 15 sec): 0.57 % of total IP
I(1,4,5)P3 cpm ([9]; PC-3, 15 sec): 971 cpm
I(1,4,5)P3 % of total IP ([9]; PC-3, 30 sec): 0.78 % of total IP
I(1,4,5)P3 cpm ([9]; PC-3, 30 sec): 1361 cpm
inhibition of cell growth ([5]; 100 μM): inhibition of growth
3H-thymidine incorporation cpm ([5]; 100 μM): 2729 cpm
3H-thymidine incorporation cpm/cell ([5]; 100 μM): 0.04 cpm/cell
cell # (× 10-4) ([5]; 100 μM): 7.5 × 10-4
3H-thymidine incorporation cpm ([6]; 100 μM): 3307 cpm
3H-thymidine incorporation cpm/cell ([6]; 100 μM): 0.11 cpm/cell
cell # (× 10-4) ([6]; 100 μM): 3.0 × 10-4
inhibition of cell growth [7]: inhibition of growth
inhibition of tumorigenesis (palpable tumor) [8]: inhibition of PC-3 prostate carcinoma tumorigenesis

C[C@H](CCC(=O)O)C[C@H](C)C[C@H](C)C(=O)/C=C(\O)[C@H](C)C[C@H](C)C/C=C/[C@@H](C)[C@@H](O)[C@@H](C)[C@@H](O)C[C@@H]1CC[C@@](C)([C@H]2CC[C@@](C)([C@@H](C)O)O2)O1 [Ionomycin, ionomycin, reference compound]
3H-thymidine incorporation cpm ([6]; 1 μM): 3920 cpm
3H-thymidine incorporation cpm/cell ([6]; 1 μM): 0.39 cpm/cell
cell # (× 10-4) ([6]; 1 μM): 1.0 × 10-4
